Values of other authors, collected in US10307441B2, “Pharmaceutical formulations of nitrite and uses thereof” (Board of Supervisors of Louisiana State University and …, priority 2009, dated 2019).

[1] = assumed mid-range PK constant for simulation

Q: Which oral bioavailability (assumed PK constant for simulation) does the source give for `O=NO` [NaNO2, Sodium nitrite] here?
A: 100%

Q: And the clearance [1]?
A: 60.375 L/h

Q: And the half-life [1]?
A: 45 min
